Entries after “also recorded” stand apart in the source; their conditions may differ.
Assays:
PERK+/+ MEFs = experiment: Cell death analysis in wild type MEFs; format: cell-based, mouse; conditions: similar conditions as for PERK−/− cells
Source text: (§1) Cell types: Human tumor cell lines 1469 (pancreatic) and MDA-MB-435 (melanoma) were purchased from American Type Culture Collection (ATCC), and maintained in DMEM with 1 g/l of glucose (Mediatech). Mouse embryonic fibroblasts (MEF) that are PERK knock-out and its wild type pair were a kind gift from Dr. Mark Lehrman (University of Southwestern Texas, Dallas, Tex.). MEFs that have wild type eif2-α and eif2-α with its serine51 mutated to alanine were a kind gift from Dr. Glen Barber (University of Miami, Miami, Fla.). All MEFS were maintained in RPMI with 2 g/l of glucose (Invitrogen). All culture media were supplemented with 10% fetal bovine serum (FBS) (Invitrogen), penicillin/streptomycin (Invitrogen) and 0.1% Plasmocin (only for cell passage) (InvivoGen) unless otherwise specified. Cells were grown under 5% CO2 at 37° C.
(§2) Growth inhibition and Cytotoxicity assays: Cells were seeded onto 24-well plates and cultured for 18-22 h. After drug exposure for 48 hours, attached cells and their respective culture media were collected and centrifuged at 400 g for 5 min. The pellets were then resuspended in Hanks Balanced Salt Solution (HBSS) (Mediatech) and analyzed with Vi-Cell cell viability analyzer (Beckman Coulter) based on trypan blue exclusion. Results were shown as the percentages of dead cells out of total cells counted. […]

[1] = tested on: eif2-α and GCN2 phosphorylation in PERK−/− MEFs; experiment: Western blot of phosphorylated eif2-α and GCN2 in PERK knock-out MEFs; format: cell-based, mouse
Source text: as §1
(§3) Immunoblotting analysis: Cells were seeded onto six-well plates and cultured for 18-22 h to reach 40-70% confluence. Following drug exposure for the indicated times, cells were harvested and lysed with the lysis buffer (100 mM Tris-HCl at pH 7.4, 1% SDS, phosphatase inhibitor cocktail 2 and protease inhibitor cocktail from Sigma-Aldrich). Protein concentrations of each sample were determined using a Micro BCA Protein Assay Kit (Thermo Scientific) according to the manufacturer's directions, and equal amounts of proteins were loaded onto 4-15% Tris-HCl gradient gels (except 12% gels for siRNA experiments) (Bio-Rad). After SDS-PAGE, proteins were transferred onto a polyvinylidene fluoride (PVDF) membrane (Millipore), blocked with 5% milk and probed with corresponding primary antibodies overnight (except 1 h for β-actin). The membrane was washed and probed with secondary antibodies for 1 h. Membrane was then incubated with SuperSignal West Pico or Femto Chemiluminescent Substrate (Thermo Scientific) and signals were visualized on Blue Lite Autorad Films (ISCBioExpress). All primary antibodies were used at 1:1000 dilution except for Atg7 (1:300) and β-actin (1:10000), and the secondary antibodies were used at 1:10000. Representative blots from at least three independent experiments were shown unless otherwise indicated.

MEF eif2a A/A = experiment: Cell death analysis in MEFs with non-phosphorylatable eif2-α; format: cell-based, mouse; conditions: 48 hours
Source text: as §1, §2

PERK−/− MEFs = experiment: Cell death analysis in PERK knock-out MEFs; format: cell-based, mouse
Source text: as §1
Growth inhibition and Cytotoxicity assays: Cells were seeded onto 24-well plates and cultured for 18-22 h. After drug exposure for 48 hours, attached cells and their respective culture media were collected and centrifuged at 400 g for 5 min. The pellets were then resuspended in Hanks Balanced Salt Solution (HBSS) (Mediatech) and analyzed with Vi-Cell cell viability analyzer (Beckman Coulter) based on trypan blue exclusion. Results were shown as the percentages of dead cells out of total cells counted. Data were the averages of triplicate samples +SD from one representative experiment out of at least three independent analyses unless otherwise indicated.
(§4) siRNA transfection: Cells were seeded into 25-cm^2 flasks and cultured for 24 h to reach ˜60% confluence using antibiotics-free media. Then, cells were transfected with anti-Luc siRNA-1 (targeting luciiferase) or ON-TARGETplus SMARTpool siRNA against PERK or GCN2 using the DharmaFECT siRNA transfection reagent #2 (Dharmacon). Twenty-four hours after transfection, cells were collected and re-seeded onto 6-well or 24-well plates and drug-treated for immunoblotting or cytotoxicity analyses, respectively.

[2] = tested on: AMPK and eif2-α phosphorylation, GRP78 and CHOP expression in MDA-MB-435 cells; experiment: Western blot of ATP and ER stress/UPR markers; format: cell-based, human
Source text: as §1, §3, §4

[3] = tested on: patients with various tumor types; conditions: in combination with taxotere; cited from earlier work
MDA-MB-435 cells = experiment: Growth inhibition assay, Vi-Cell trypan blue exclusion; format: cell-based, human; conditions: 48 hours, equivalent doses, i.e. 0.3 mM and 2 mM
Source text: as §1, §2

## O=CC[C@@H](O)[C@H](O)[C@H](O)CO [2-DG, 2-Deoxy-D-glucose]
PERK+/+ MEFs
  2-DG toxicity in PERK+/+ cells with siRNA against GCN2 or increased glutamine: not increased
[1]; 2-DG 2 and 8 mM, 4 mM glutamine, 24 hours
  GCN2 phosphorylation induced by 2-DG: induces phosphorylation of GCN2
[1]; as a function of time of treatment with 2-DG
  phosphorylated eif2-α levels in PERK−/− vs PERK+/+ cells: significantly lower levels
MEF eif2a A/A
  sensitivity of eif2-α mutant MEFs to toxic effects of 2-DG vs parental: more sensitive
PERK−/− MEFs; 48 hours
  toxicity of 2-DG in PERK−/− vs PERK+/+ MEFs: more toxic; also recorded: more sensitive
[2]; 2-DG 0.2 mM and 2 mM, 24 hours
  eIF2a phosphorylation: phosphorylated (inhibited)
[2]; 2-DG 0.2 mM, 24 hours
  AMPK phosphorylation: phosphorylated
[2]; 2-DG, aerobic conditions
  levels of UPR chaperone GRP 78: increased levels
[3]
  tolerability in phase I trial: well-tolerated

## O=C[C@H](F)[C@@H](O)[C@H](O)[C@H](O)CO [2-FDG, 2-fluoro-deoxy-D-glucose]
MDA-MB-435 cells
  growth inhibitory activity compared with 2-DG: significantly less growth inhibitory activity than 2-DG
PERK−/− MEFs; doses that do not induce ER stress but block glycolysis, 48 hours
  toxicity of 2-FDG in PERK−/− cells: very little or no toxicity
[2]; equivalent doses, 0.3 mM and 2 mM
  induction of UPR marker GRP 78 compared with 2-DG: less induction

## NC(=O)CC[C@H](N)C(=O)O [glutamine]
[1]; 2-DG treated PERK−/− cells, exogenous glutamine
  eif2-α phosphorylation with exogenous glutamine: reduces
[1]; glutamine increased to 8 mM
  2-DG induced GCN2 phosphorylation with exogenous glutamine: attenuated
PERK−/− MEFs; 8 mM glutamine, 2-DG 48 hours
  2-DG toxicity in PERK−/− cells in 8 mM vs 4 mM glutamine: increased toxicity

Reference: patent US20130184330A1, “COMPOSITIONS AND METHODS FOR INDUCING CANCER CELL DEATH” (UNIVERSITY OF MIAMI, priority 2010, published 2013)
